The text below walks through data of the OligoGym collection.

HELM strings list units from the 5' end as sugar, base in round brackets, then linkage (d deoxyribose, r ribose, m 2'-O-methyl, p phosphodiester). Strings are as the collection lists them; they lack the last nucleoside at the 3' end of the tested compound. [moe] = 2'-O-(2-methoxyethyl) (MOE); [sp] = phosphorothioate linkage; [m5C] = 5-methylcytosine

The data set deals with PRNP. In words: mouse, dose not given. The settings on record: ASO.
With “RNA1{[moe](G)[sp].[moe]([m5C])p.[moe](T)p.[moe](T)p.[moe](A)p.d(T)[sp].d(T)[sp].d(A)[sp].d(T)[sp].d(T)[sp].d([m5C])[sp].d(A)[sp].d(T)[sp].d(G)[sp].[moe](T)[sp].[moe](T)p.[moe]([m5C])p.[moe](T)}$$$$ (last 3' nucleoside missing)”, the 3 h FOB score worked out at 1 score 0-7.
As for “RNA1{[moe](G)[sp].[moe]([m5C])p.[moe](T)p.[moe](T)p.[moe](A)p.d([m5C])[sp].d(T)[sp].d([m5C])[sp].d(G)[sp].d(G)[sp].d([m5C])[sp].d(T)[sp].d(T)[sp].d(G)[sp].[moe](T)[sp].[moe](T)p.[moe]([m5C])p.[moe]([m5C])}$$$$ (last 3' nucleoside missing)”, the 3 h FOB score was found to be 4.5 score 0-7.
The same measure for “RNA1{[moe](G)[sp].[moe]([m5C])p.[moe](T)p.[moe](T)p.[moe](T)[sp].d(G)[sp].d(G)[sp].d(A)[sp].d(T)[sp].d([m5C])[sp].d(T)[sp].d([m5C])[sp].d(T)[sp].d(T)[sp].d(A)[sp].[moe](G)p.[moe](A)p.[moe](T)[sp].[moe](T)}$$$$ (last 3' nucleoside missing)”: 0 score 0-7; for “RNA1{[moe](G)[sp].[moe]([m5C])p.[moe](T)p.[moe](T)p.[moe]([m5C])[sp].d(T)[sp].d([m5C])[sp].d(A)[sp].d(A)[sp].d(T)[sp].d(T)[sp].d(T)[sp].d(T)[sp].d(T)[sp].d([m5C])[sp].[moe]([m5C])p.[moe](A)p.[moe](A)[sp].[moe]([m5C])}$$$$ (last 3' nucleoside missing)”: 0 score 0-7.
The same measure for “RNA1{[moe](G)[sp].[moe]([m5C])p.[moe](T)p.[moe](T)p.d(A)[sp].d(T)[sp].d(T)[sp].d(A)[sp].d(T)[sp].d(T)[sp].d([m5C])[sp].d(A)[sp].d(T)[sp].d(G)[sp].[moe](T)p.[moe](T)p.[moe]([m5C])p.[moe](T)[sp].[moe]([m5C])}$$$$ (last 3' nucleoside missing)”: 1 score 0-7.
Take “RNA1{[moe](G)[sp].[moe]([m5C])p.[moe](T)p.[moe](T)p.d(A)[sp].d([m5C])[sp].d(T)[sp].d([m5C])[sp].d(G)[sp].d(G)[sp].d([m5C])[sp].d(T)[sp].d(T)[sp].d(G)[sp].[moe](T)p.[moe](T)p.[moe]([m5C])p.[moe]([m5C])[sp].[moe](A)}$$$$ (last 3' nucleoside missing)”: the 3 h FOB score is 3.25 score 0-7.
In turn, “RNA1{[moe](G)[sp].[moe]([m5C])p.[moe](T)p.[moe]([m5C])p.[moe](T)[sp].d(A)[sp].d(T)[sp].d(T)[sp].d(A)[sp].d(A)[sp].d(T)[sp].d(A)[sp].d(G)[sp].d(G)[sp].d(T)[sp].[moe](T)p.[moe](A)p.[moe](G)[sp].[moe](G)}$$$$ (last 3' nucleoside missing)” came in with a 3 h FOB score of 4.25 score 0-7.
The figure for “RNA1{[moe](G)[sp].[moe]([m5C])p.[moe]([m5C])p.[moe](A)p.[moe](A)[sp].d(G)[sp].d(G)[sp].d(G)[sp].d(T)[sp].d(A)[sp].d(T)[sp].d(T)[sp].d(G)[sp].d(A)[sp].d(T)[sp].[moe](T)p.[moe](A)p.[moe](G)[sp].[moe]([m5C])}$$$$ (last 3' nucleoside missing)” is 3.5 score 0-7; for “RNA1{[moe](G)[sp].[moe]([m5C])p.[moe]([m5C])p.[moe](A)p.[moe](A)[sp].d(T)[sp].d(A)[sp].d(A)[sp].d(T)[sp].d(A)[sp].d(A)[sp].d([m5C])[sp].d(A)[sp].d(T)[sp].d(T)[sp].[moe](G)p.[moe]([m5C])p.[moe](A)[sp].[moe](G)}$$$$ (last 3' nucleoside missing)” it is 0 score 0-7.
The figure for “RNA1{[moe](G)[sp].[moe]([m5C])p.[moe]([m5C])p.[moe](A)p.[moe]([m5C])[sp].d(A)[sp].d(T)[sp].d(A)[sp].d(T)[sp].d(A)[sp].d(G)[sp].d(G)[sp].d(G)[sp].d(T)[sp].d([m5C])[sp].[moe]([m5C])p.[moe](T)p.[moe](T)[sp].[moe](T)}$$$$ (last 3' nucleoside missing)” is 1.5 score 0-7; for “RNA1{[moe](G)[sp].[moe]([m5C])p.[moe]([m5C])p.[moe](A)p.[moe]([m5C])p.[moe](A)p.d(T)[sp].d(A)[sp].d(T)[sp].d(A)[sp].d(G)[sp].d(G)[sp].d(G)[sp].d(T)[sp].d([m5C])[sp].d([m5C])[sp].[moe](T)p.[moe](T)[sp].[moe](T)}$$$$ (last 3' nucleoside missing)” it is 4 score 0-7.
Turning to “RNA1{[moe](G)[sp].[moe]([m5C])p.[moe]([m5C])p.[moe](A)p.d([m5C])[sp].d(A)[sp].d(T)[sp].d(A)[sp].d(T)[sp].d(A)[sp].d(G)[sp].d(G)[sp].d(G)[sp].d(T)[sp].[moe]([m5C])p.[moe]([m5C])p.[moe](T)p.[moe](T)[sp].[moe](T)}$$$$ (last 3' nucleoside missing)”, the 3 h FOB score stood at 3.75 score 0-7.
In turn, “RNA1{[moe](G)[sp].[moe]([m5C])p.[moe]([m5C])p.[moe](T)p.[moe](T)[sp].d(A)[sp].d(A)[sp].d(T)[sp].d(T)[sp].d(A)[sp].d([m5C])[sp].d([m5C])[sp].d(T)[sp].d(A)[sp].d(T)[sp].[moe](A)p.[moe](G)p.[moe](T)[sp].[moe](T)}$$$$ (last 3' nucleoside missing)” had a 3 h FOB score of 1 score 0-7.
The same measure for “RNA1{[moe](T)[sp].[moe](A)p.[moe](G)p.[moe](G)p.[moe]([m5C])[sp].d(T)[sp].d([m5C])[sp].d(T)[sp].d(T)[sp].d(T)[sp].d(T)[sp].d([m5C])[sp].d([m5C])[sp].d(A)[sp].d(G)[sp].[moe](G)p.[moe](T)p.[moe](G)[sp].[moe](T)}$$$$ (last 3' nucleoside missing)”: 1 score 0-7; for “RNA1{[moe](T)[sp].[moe](A)p.[moe](T)p.[moe](G)p.[moe](T)p.d(T)[sp].d(T)[sp].d(T)[sp].d([m5C])[sp].d([m5C])[sp].d(A)[sp].d(G)[sp].d(T)[sp].d(G)[sp].[moe]([m5C])p.[moe]([m5C])p.[moe]([m5C])[sp].[moe](A)}$$$$ (last 3' nucleoside missing)”: 5.25 score 0-7.
The same measure for “RNA1{[moe](T)[sp].[moe](A)p.[moe]([m5C])p.[moe](T)p.[moe](T)[sp].d(G)[sp].d(T)[sp].d([m5C])[sp].d(A)[sp].d(G)[sp].d(T)[sp].d(T)[sp].d(T)[sp].d(T)[sp].d(T)[sp].[moe]([m5C])p.[moe]([m5C])p.[moe]([m5C])[sp].[moe]([m5C])}$$$$ (last 3' nucleoside missing)”: 4.5 score 0-7.
For the substance “RNA1{[moe](T)[sp].[moe](A)p.[moe]([m5C])p.[moe](T)p.[moe]([m5C])[sp].d(T)[sp].d(A)[sp].d(T)[sp].d(G)[sp].d(T)[sp].d(T)[sp].d(T)[sp].d(T)[sp].d([m5C])[sp].d([m5C])[sp].[moe](A)p.[moe](G)p.[moe](T)[sp].[moe](G)}$$$$ (last 3' nucleoside missing)”, the 3 h FOB score worked out at 1.75 score 0-7.
The figure for “RNA1{[moe](T)[sp].[moe](G)p.[moe](G)p.[moe](A)p.[moe](A)[sp].d(G)[sp].d(A)[sp].d([m5C])[sp].d(T)[sp].d(T)[sp].d(G)[sp].d(T)[sp].d(G)[sp].d(T)[sp].d(T)[sp].[moe](A)p.[moe](G)p.[moe](A)[sp].[moe](T)}$$$$ (last 3' nucleoside missing)” is 6.5 score 0-7; for “RNA1{[moe](T)[sp].[moe](G)p.[moe](G)p.[moe](G)p.[moe](A)[sp].d(G)[sp].d(T)[sp].d(A)[sp].d(T)[sp].d([m5C])[sp].d(A)[sp].d(A)[sp].d(T)[sp].d(T)[sp].d(T)[sp].[moe](A)p.[moe](A)p.[moe](G)[sp].[moe]([m5C])}$$$$ (last 3' nucleoside missing)” it is 0 score 0-7.
The same measure for “RNA1{[moe](T)[sp].[moe](G)p.[moe](G)p.[moe](T)p.[moe](A)[sp].d(G)[sp].d(T)[sp].d(T)[sp].d(T)[sp].d(T)[sp].d(T)[sp].d([m5C])[sp].d(A)[sp].d(A)[sp].d(A)[sp].[moe](T)p.[moe]([m5C])p.[moe](A)[sp].[moe](A)}$$$$ (last 3' nucleoside missing)”: 0 score 0-7; for “RNA1{[moe](T)[sp].[moe](G)p.[moe](G)p.[moe](T)p.[moe](G)[sp].d(A)[sp].d(T)[sp].d(T)[sp].d(T)[sp].d(T)[sp].d(T)[sp].d(T)[sp].d([m5C])[sp].d([m5C])[sp].d(T)[sp].[moe](T)p.[moe](T)p.[moe]([m5C])[sp].[moe](T)}$$$$ (last 3' nucleoside missing)”: 0 score 0-7; for “RNA1{[moe](T)[sp].[moe](G)p.[moe](G)p.[moe](T)p.[moe](G)[sp].d(T)[sp].d(T)[sp].d(A)[sp].d(T)[sp].d(A)[sp].d([m5C])[sp].d(A)[sp].d(T)[sp].d(T)[sp].d(T)[sp].[moe](A)p.[moe](G)p.[moe](G)[sp].[moe]([m5C])}$$$$ (last 3' nucleoside missing)”: 1 score 0-7.
The figure for “RNA1{[moe](T)[sp].[moe](G)p.[moe](G)p.[moe](T)p.[moe](T)[sp].d(A)[sp].d(G)[sp].d([m5C])[sp].d(T)[sp].d(T)[sp].d(T)[sp].d(T)[sp].d(T)[sp].d(T)[sp].d(T)[sp].[moe]([m5C])p.[moe](A)p.[moe]([m5C])[sp].[moe](T)}$$$$ (last 3' nucleoside missing)” is 6.25 score 0-7; for “RNA1{[moe](T)[sp].[moe](G)p.[moe](G)p.[moe](T)p.[moe](T)[sp].d(A)[sp].d(T)[sp].d(T)[sp].d(T)[sp].d(T)[sp].d(A)[sp].d(A)[sp].d(T)[sp].d(A)[sp].d(G)[sp].[moe](A)p.[moe](T)p.[moe](G)[sp].[moe](T)}$$$$ (last 3' nucleoside missing)” it is 1 score 0-7.
Take “RNA1{[moe](T)[sp].[moe](G)p.[moe](G)p.[moe](T)p.[moe](T)[sp].d(A)[sp].d([m5C])[sp].d(A)[sp].d(T)[sp].d(A)[sp].d(A)[sp].d(T)[sp].d(G)[sp].d(T)[sp].d(T)[sp].[moe]([m5C])p.[moe](A)p.[moe](T)[sp].[moe](T)}$$$$ (last 3' nucleoside missing)”: the 3 h FOB score was 4 score 0-7.
